# Measured values reported in patent US10696615B2, “Prenylated hydroxystilbenes” (The University of Sydney, priority 2011, dated 2020).
# Experiments:
# Assay type in all cases: cell-based, human
# [1] = system: CCRF-CEM; test: NCI in vitro cancer screen, Leukemia
# [2] = system: RPMI-8226; test: NCI in vitro cancer screen, Leukemia; details: RPMI-8226
# [3] = system: EKVX; test: NCI in vitro cancer screen, Non-Small Cell Lung Cancer
# [4] = system: HOP-62; test: as above; details: HOP-62
# [5] = system: NCI-H23; test: as above; details: NCI-H23
# [6] = system: NCI-H460; test: as above; details: NCI-H460
# [7] = system: HCC-2998; test: NCI in vitro cancer screen, Colon Cancer; details: HCC-2998
# [8] = system: HCT-15; test: NCI in vitro cancer screen, Colon Cancer; details: HCT-15
# [9] = system: SF-268; test: NCI in vitro cancer screen, CNS Cancer; details: SF-268
# [10] = system: LOX IMVI; test: NCI in vitro cancer screen, Melanoma
# [11] = system: M14; test: NCI in vitro cancer screen, Melanoma; details: M14
# [12] = system: MDA-MB-435; test: NCI in vitro cancer screen, Melanoma; details: MDA-MB-435
# [13] = system: SK-MEL-2; test: NCI in vitro cancer screen, Melanoma; details: SK-MEL-2
# [14] = system: SK-MEL-28; test: NCI in vitro cancer screen, Melanoma; details: SK-MEL-28
# [15] = system: SK-MEL-5; test: NCI in vitro cancer screen, Melanoma; details: SK-MEL-5
# [16] = system: UACC-62; test: NCI in vitro cancer screen, Melanoma; details: UACC-62
# [17] = system: OVCAR-8; test: NCI in vitro cancer screen, Ovarian Cancer; details: OVCAR-8
# [18] = system: SK-OV-3; test: NCI in vitro cancer screen, Ovarian Cancer; details: SK-OV-3
# [19] = system: 786-0; test: NCI in vitro cancer screen, Renal Cancer; details: 786-0
# [20] = system: A498; test: NCI in vitro cancer screen, Renal Cancer; details: A498
# [21] = system: RXF-393; test: NCI in vitro cancer screen, Renal Cancer; details: RXF-393
# [22] = system: SN12C; test: NCI in vitro cancer screen, Renal Cancer
# [23] = system: TK-10; test: NCI in vitro cancer screen, Renal Cancer; details: TK-10
# [24] = system: PC-3; test: NCI in vitro cancer screen, Prostate Cancer; details: PC-3
# [25] = system: HS 578T; test: NCI in vitro cancer screen, Breast Cancer
# [26] = system: T-47D; test: NCI in vitro cancer screen, Breast Cancer
# [27] = system: MDA-MB-468; test: NCI in vitro cancer screen, Breast Cancer; details: MDA-MB-468
# [28] = Homo sapiens, read-out: LC50 (the source's name)
compound,measurement,setting,value
"CC(C)=CCc1c(O)cc(/C=C/c2ccc(O)cc2)c(CC=C(C)C)c1O [USYDS6, (E)-2,4-di(3-methyl-2-buten-1-yl)-3,4′,5-trihydroxystilbene]",TGI,[1],9.17 µM
same,GI50,[1]; Homo sapiens,2960 nM
same,CC50,[1]; [28],82.1 µM
same,GI50,[2]; Homo sapiens,2340 nM
same,CC50,[2]; [28],62 µM
same,TGI,[2],5.61 µM
same,TGI,[3],21.4 µM
same,GI50,[3]; Homo sapiens,7.19 µM
same,CC50,[3]; [28],54.4 µM
same,TGI,[4],17.5 µM
same,GI50,[4]; Homo sapiens,5.11 µM
same,CC50,[4]; [28],44 µM
same,GI50,[5]; Homo sapiens,3.38 µM
same,TGI,[5],15.7 µM
same,GI50,[6]; Homo sapiens,1890 nM
same,CC50,[6]; [28],8.06 µM
same,TGI,[6],3.90 µM
same,TGI,[7],8.78 µM
same,GI50,[7]; Homo sapiens,2810 nM
same,CC50,[7]; [28],32.2 µM
same,TGI,[8],6.26 µM
same,GI50,[8]; Homo sapiens,2130 nM
same,CC50,[8]; [28],48.2 µM
same,GI50,[9]; Homo sapiens,2780 nM
same,CC50,[9]; [28],44.3 µM
same,TGI,[9],8.97 µM
same,TGI,[10],3.42 µM
same,GI50,[10]; Homo sapiens,1760 nM
same,CC50,[10]; [28],6.68 µM
same,GI50,[11]; Homo sapiens,2820 nM
same,CC50,[11]; [28],33.4 µM
same,TGI,[11],8.46 µM
same,GI50,[12]; Homo sapiens,3.37 µM
same,CC50,[12]; [28],42.1 µM
same,TGI,[12],10.8 µM
same,GI50,[13]; Homo sapiens,13.1 µM
same,TGI,[13],33.6 µM
same,GI50,[14]; Homo sapiens,11.2 µM
same,TGI,[14],24.0 µM
same,GI50,[15]; Homo sapiens,2290 nM
same,CC50,[15]; [28],22.1 µM
same,TGI,[15],6.17 µM
same,GI50,[16]; Homo sapiens,10.3 µM
same,CC50,[16]; [28],53.8 µM
same,TGI,[16],23.5 µM
same,GI50,[17]; Homo sapiens,2950 nM
same,CC50,[17]; [28],42.9 µM
same,TGI,[17],9.51 µM
same,GI50,[18]; Homo sapiens,13.9 µM
same,CC50,[18]; [28],53.2 µM
same,TGI,[18],27.1 µM
same,TGI,[19],6.96 µM
same,GI50,[19]; Homo sapiens,2460 nM
same,TGI,[20],25.0 µM
same,GI50,[20]; Homo sapiens,11.7 µM
same,CC50,[20]; [28],53.1 µM
same,GI50,[21]; Homo sapiens,2150 nM
same,CC50,[21]; [28],18.7 µM
same,TGI,[21],5.39 µM
same,TGI,[22],7.98 µM
same,GI50,[22]; Homo sapiens,2850 nM
same,CC50,[22]; [28],30.8 µM
same,GI50,[23]; Homo sapiens,3.36 µM
same,TGI,[23],9.33 µM
same,GI50,[24]; Homo sapiens,1800 nM
same,CC50,[24]; [28],8.44 µM
same,TGI,[24],3.89 µM
same,TGI,[25],5.29 µM
same,GI50,[25]; Homo sapiens,1670 nM
same,CC50,[25]; [28],35.8 µM
same,TGI,[26],20.3 µM
same,GI50,"[26]; Homo sapiens, T47D",5.03 µM
same,CC50,"[26]; Homo sapiens, T47D, read-out: LC50 (the source's name)",57.9 µM
same,GI50,[27]; Homo sapiens,2300 nM
same,CC50,[27]; [28],26 µM
same,TGI,[27],6.39 µM
